In PMC3446921, “Enhanced Solubilisation of Six PAHs by Three Synthetic Cyclodextrins for Remediation Applications: Molecular Modelling of the Inclusion Complexes” (PLoS ONE, 2012):
≈ marks a conversion by molar mass, not a printed value. Where “and” joins values, the source holds several entries; their conditions need not be identical. Equal values may be shown once.

How the values were obtained:
[1] = PAHs aqueous solubility in the absence of CD; settings: 25 °C, water, thermodynamic from solid
Experimental: (§1) 5 mg of each PAH were added to aqueous solutions (10 mL) containing increasing dissolved concentrations (from 0 to 0.1 M) of each CD. The experiments were carried out in triplicate. Flasks were sealed and shaken at 25°C for 1 week. The concentration of each PAH in solution was determined using a Shimadzu HPLC chromatograph equipped with a chromatographic column, Kromasil 100 C18 reverse-phase (5 µm, 15×0.4), coupled to a fluorescence detector (Shimadzu RF-10APXL). The chromatographic conditions were as follows: mobile phase, acetonitrile/water (60∶40); flow, 1.5 mL min^−1; temperature, 30°C. […] To obtain the phase solubility diagrams, the concentration of the PAHs dissolved versus the increasing concentrations of the CDs used were represented.

[2] = Phase solubility studies (Higuchi and Connors) with RAMEB; settings: for Apparent stability constant Kc: RAMEB 0 to 0.1 M, 1:1 complex, 25°C; for solubility at 1 week: 25 °C, aqueous with cosolvent or surfactant or cyclodextrin, thermodynamic from solid
[3] = Phase solubility studies (Higuchi and Connors) with HP-β-CD; settings: for Apparent stability constant Kc: HP-β-CD 0 to 0.1 M, 1:1 complex, 25°C
[4] = Phase solubility studies (Higuchi and Connors) with HP-γ-CD; settings: HP-γ-CD 0 to 0.1 M; 1:1 complex; 25°C
[5] = Phase solubility studies: comparison of the six PAHs across the three CDs; settings: for Decreasing order of Se and Kc: per CD; for Decreasing order of PAHs apparent solubility: reached with 0.1 M of the CD
[6] = ref [40], cited from earlier work
[7] = 1 week
Experimental: as §1

physchem [8] = settings: 25 °C, aqueous with cosolvent or surfactant or cyclodextrin, thermodynamic from solid
physchem [9] = settings: 25 °C, water, thermodynamic from solid
Experimental: as §1

| Compound | solubility at 1 week [1] | Apparent stability constant Kc [2] | Apparent stability constant Kc [3] | Apparent stability constant Kc [4] | Decreasing order of Se and Kc [5] | further results |
| --- | --- | --- | --- | --- | --- | --- |
| c1cc2c3c(cccc3c1)CC2 [ACE, acenaphthene] | 1.93 µg/mL (≈ 12.5 µM) | 644 (±12) M^−1 | 661 (±35) M^−1 | 758 (±41) M^−1 | – | solubility at 1 week ([5]; 25 °C, aqueous with cosolvent or surfactant or cyclodextrin, thermodynamic from solid): 125 to 147 µg/mL (≈ 811 to 953 µM) |
| hydroxypropyl-γ-CD [HP-γ-CD] | – | – | – | – | PYR>ACE>FLT>PHE>ANT>FLU | – |
| c1ccc2c(c1)ccc1ccccc12 [PHE, phenanthrene] | 1.2 µg/mL (≈ 6.73 µM) | 4925 (±511) M^−1 | 3871 (±322) M^−1 | 447 (±17) M^−1 | – | solubility at 1 week ([2]; aqueous RAMEB solution): ≤ 572 µg/mL; Kc value relative to that for ACE ([3]; HP-β-CD complexes): ~6 fold |
| c1ccc2cc3ccccc3cc2c1 [ANT, anthracene] | 0.076 µg/mL (≈ 0.426 µM) | 5399 (±52) M^−1 | 3284 (±204) M^−1 | 234 M^−1 and 234 (±35) M^−1 | – | Kc with γ-CD ([6]; γ-CD, [42]): 240 to 330 M⁻¹; solubility at 1 week [2]: ≤ 41 µg/mL; Kc value relative to the lowest one (PYR) ([2]; RAMEB complexes): about 10 fold |
| c1cc2ccc3cccc4ccc(c1)c2c34 [PYR, pyrene] | – | – | – | – | – | Kc with natural γ-CD ([6]; natural γ-CD, [41]): 250 to 300 M⁻¹ |
| randomly methylated-β-CD [RAMEB] | – | – | – | – | ANT>PHE>FLT>FLU>ACE>PYR | Decreasing order of PAHs apparent solubility [5]: FLU≥PHE>ACE>FLT>ANT>PYR |
| 2-Hydroxypropyl-β-CD [HP-β-CD] | – | – | – | – | PHE>ANT>FLT>FLU>PYR>ACE | Decreasing order of PAHs apparent solubility [5]: PHE≥FLU>ACE>FLT>ANT>PYR |
| c1ccc2c(c1)Cc1ccccc1-2 [FLU, fluorene] | – | 2906 (±164) M^−1 | – | – | – | PAHs aqueous solubility (S) [7]: 1.90 µg/mL; solubility at 1 week ([2]; aqueous RAMEB solution): ≤ 574 µg/mL |
| c1ccc2c(c1)-c1cccc3cccc-2c13 [FLT, fluoranthene] | – | – | – | – | – | solubility (physchem [8]): ≤ 101 µg/mL; solubility (physchem [9]): 0.26 µg/mL (≈ 1.29 µM) |
